Common to all, as to details: 72 h
For assay [1], the system named is U2OS. As to the kind of experiment: cell viability relative to DMSO; higher = less toxic.
In assay [2] the test system is Caco-2. The assay is described as above.
Assay [3] relates to Calu-3. The assay is described as above.
The subject of assay [4] is HepG2. The assay is described as above.
In assay [5] the test system is U2OS. Nature of the assay: relative viability EC50 (midpoint between 100% and the lowest measured viability); higher = less toxic.
The subject of assay [6] is Caco-2. The description is as above.
The subject of assay [7] is Calu-3. Described as above.
The test system of assay [8] is HepG2. Described as above.
In assay [9] the test system is U2OS. As to the kind of experiment: drug sensitivity score (DSS) for viability; higher = more toxic; extreme values may be limits of the assay.
Assay [10] deals with Caco-2. The assay is described as above.
Assay [11] relates to Calu-3. Described as above.
In assay [12] the test system is HepG2. The description is as above.
For a further assay, the system named is Vero E6. The assay is described as above.

The cell viability is a read-out of living cells in per cent, often relative to untreated cells. Consider `CC[N+](CC)(CC)CCOc1cccc(OCC[N+](CC)(CC)CC)c1OCC[N+](CC)(CC)CC` [gallamine-triethiodide], for which the cell viability came to 103% with U2OS [1] (1 nM); 101% with U2OS [1] (10 nM); 102% in the assay with U2OS [1] (100 nM); 99.8% in the assay on U2OS [1] (1000 nM); 100% with U2OS [1] (10000 nM); 104% with Caco-2 [2] (1 nM). Also, the cell viability in the assay on Caco-2 [2] (10 nM) is 96.2%; in the assay with Caco-2 [2] (100 nM), 91.5%; with Caco-2 [2] (1000 nM), 98.2%; with Caco-2 [2] (10000 nM) it was 101%; with Calu-3 [3] (1 nM) it was 104%; in the assay with Calu-3 [3] (10 nM) it was 108%. Further, the cell viability in the assay with Calu-3 [3] (100 nM) was 104%; in the assay on Calu-3 [3] (1000 nM), 90.8%; with Calu-3 [3] (10000 nM), 95%; in the assay on HepG2 [4] (1 nM), 94.7%; in the assay with HepG2 [4] (10 nM), 102%; with HepG2 [4] (100 nM), 94%. In addition, the cell viability in the assay on HepG2 [4] (1000 nM) is 93.1%; with HepG2 [4] (10000 nM) it was 95.6%. Also, the “relative viability EC50” value in the assay with U2OS [5], in the assay on Caco-2 [6], in the assay on Calu-3 [7] and in the assay on HepG2 [8] was greater than 10 µM throughout. For the same molecule, the drug sensitivity score with U2OS [9], with Caco-2 [10], in the assay on Calu-3 [11] and in the assay with HepG2 [12] was 0 each time.

`COC(=O)C1=CO[C@@H](O[C@@H]2O[C@H](CO)[C@@H](O)[C@H](O)[C@H]2O)[C@@H]2C(CO)=CC[C@H]12` [geniposide]: the cell viability is 93.9% in the assay with U2OS [1] (1 nM); 99.4% in the assay with U2OS [1] (10 nM); 94.9% with U2OS [1] (100 nM); 99.5% in the assay with U2OS [1] (1000 nM); 99% in the assay on U2OS [1] (10000 nM); 99.6% in the assay on Caco-2 [2] (1 nM). The cell viability in the assay on Caco-2 [2] (10 nM) was 94.5%; with Caco-2 [2] (100 nM), 93.5%; with Caco-2 [2] (1000 nM) it was 95.9%; in the assay on Caco-2 [2] (10000 nM) it was 93.9%; with Calu-3 [3] (1 nM) it was 84.8%; with Calu-3 [3] (10 nM), 98.2%. For the same molecule, the cell viability in the assay with Calu-3 [3] (100 nM) was found to be 91.2%; with Calu-3 [3] (1000 nM), 96.4%; in the assay with Calu-3 [3] (10000 nM), 98.4%; in the assay with HepG2 [4] (1 nM), 104%; in the assay on HepG2 [4] (10 nM) it was 95.5%; in the assay on HepG2 [4] (100 nM), 106%. Besides, the cell viability in the assay on HepG2 [4] (1000 nM) was determined as 114%; in the assay on HepG2 [4] (10000 nM), 92.4%. The “relative viability EC50” value in the assay with U2OS [5], in the assay with Caco-2 [6], in the assay on Calu-3 [7] and in the assay on HepG2 [8] was greater than 10 µM in each case. Also, the drug sensitivity score with U2OS [9], with Caco-2 [10], in the assay on Calu-3 [11] and with HepG2 [12] was 0 each time.

With `CC(C)Cc1ccc(C(C)C(=O)NO)cc1` (stereo unspecified) [ibuproxam], the drug sensitivity score with U2OS [9], in the assay with Vero E6, in the assay with Calu-3 [11] and with HepG2 [12] was 0 each time.

With `c1cc(Cc2cnc[nH]2)ccn1` [immethridine], the cell viability in the assay on U2OS [1] (1 nM) was determined as 94.1%; in the assay with U2OS [1] (10 nM), 99.9%; in the assay on U2OS [1] (100 nM), 97.4%; in the assay on U2OS [1] (1000 nM), 102%; with U2OS [1] (10000 nM), 98.4%; in the assay with Caco-2 [2] (1 nM) it was 99.7%. Besides, the cell viability in the assay on Caco-2 [2] (10 nM) was 103%; in the assay with Caco-2 [2] (100 nM) it was 95%; in the assay on Caco-2 [2] (1000 nM), 97.1%; in the assay with Caco-2 [2] (10000 nM), 90.3%; with Calu-3 [3] (1 nM) it was 107%; in the assay on Calu-3 [3] (10 nM) it was 96.8%. Moreover, the cell viability with Calu-3 [3] (100 nM) was 94.6%; in the assay with Calu-3 [3] (1000 nM), 94.8%; in the assay with Calu-3 [3] (10000 nM), 103%; in the assay on HepG2 [4] (1 nM), 93.8%; in the assay with HepG2 [4] (10 nM), 104%; with HepG2 [4] (100 nM), 99.1%. The cell viability came out at 93.4% in the assay on HepG2 [4] (1000 nM) and 97% in the assay with HepG2 [4] (10000 nM). The “relative viability EC50” value with U2OS [5], with Caco-2 [6], with Calu-3 [7] and in the assay with HepG2 [8] was greater than 10 µM each time. The drug sensitivity score in the assay on U2OS [9], with Caco-2 [10], with Calu-3 [11] and with HepG2 [12] was 0 each time.

In the case of `CNC(=O)c1c(I)c(C(=O)NCC(=O)Nc2c(I)c(C(=O)O)c(I)c(C(=O)NCCO)c2I)c(I)c(N(C)C(C)=O)c1I` [ioxaglic-acid], the cell viability is 106% with U2OS [1] (1 nM); 96.9% in the assay with U2OS [1] (10 nM); 102% with U2OS [1] (100 nM); 101% with U2OS [1] (1000 nM); 104% with U2OS [1] (10000 nM); 104% in the assay on Caco-2 [2] (1 nM). Also, the cell viability was found to be 92.4% in the assay on Caco-2 [2] (10 nM); 106% with Caco-2 [2] (100 nM); 100% with Caco-2 [2] (1000 nM); 103% with Caco-2 [2] (10000 nM); 109% with Calu-3 [3] (1 nM); 101% in the assay on Calu-3 [3] (10 nM). Besides, the cell viability stood at 97.2% with Calu-3 [3] (100 nM); 102% with Calu-3 [3] (1000 nM); 95.5% in the assay with Calu-3 [3] (10000 nM); 95.9% in the assay on HepG2 [4] (1 nM); 98.4% with HepG2 [4] (10 nM); 94% in the assay with HepG2 [4] (100 nM). Besides, the cell viability in the assay with HepG2 [4] (1000 nM) was 98.2%; in the assay with HepG2 [4] (10000 nM) it was 96.9%. Moreover, the “relative viability EC50” value in the assay on U2OS [5], in the assay with Caco-2 [6], in the assay on Calu-3 [7] and in the assay on HepG2 [8] was greater than 10 µM in each case. The drug sensitivity score with U2OS [9], in the assay with Caco-2 [10], with Calu-3 [11] and in the assay with HepG2 [12] was 0 throughout.

The values above are taken from the supplement of paper PMC13380429.
